Here are results for 14 compounds from PubChem BioAssay (NCI).

Where “and” joins values, the source holds several entries; their conditions need not be identical. Equal entries are not always repeated.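 In this assay, cells in 96-well plates receive the compound at five concentrations for 48 hours. Endpoints are linearly interpolated between the surrounding concentrations. The concentration for 50% growth inhibition is given as GI50. TGI denotes the concentration required for complete inhibition of growth.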 Some results are limits rather than exact numbers.

Some test systems named below: HS 578T breast; T-47D breast; MDA-MB-435; MCF7 breast; NCI/ADR-RES ovarian; DU-145 prostate.
Common to all, as to experiment: NCI anticancer screen, dose series, 48 h

For `O=C(c1cccs1)C1NO[N+]([O-])=C1c1cccs1` (configuration not stated), the GI50 with HS 578T breast is 2.82 µM; in the assay on T-47D breast, 2.2 µM; in the assay on MDA-MB-435 it was 5.29 µM; in the assay on MCF7 breast it was 4.84 µM; in the assay with NCI/ADR-RES ovarian it was 3.42 µM; in the assay on DU-145 prostate, 3.76 µM. In addition, the TGI in the assay on HS 578T breast stood at 14.6 µM; with T-47D breast, 5.09 µM; in the assay on MDA-MB-435 it was 16.3 µM; with MCF7 breast, 16.3 µM; in the assay with NCI/ADR-RES ovarian, 18.9 µM; in the assay on DU-145 prostate it was 10.7 µM.

For `CCn1c(-c2nonc2N)nc2ccncc21`, the GI50 in the assay with HS 578T breast, in the assay with T-47D breast, in the assay on MDA-MB-435, in the assay on MCF7 breast, in the assay with NCI/ADR-RES ovarian and in the assay on DU-145 prostate was more than 25 µM in each case. In addition, the TGI with HS 578T breast, in the assay with T-47D breast, in the assay on MDA-MB-435, with MCF7 breast, with NCI/ADR-RES ovarian and in the assay on DU-145 prostate was more than 25 µM each time.

Turning to `COc1cccc(COc2cc(-n3cnc4ccccc43)sc2C(N)=O)c1`, the GI50 was more than 17.7 µM in the assay on HS 578T breast; more than 25 µM with T-47D breast; 1.3 µM in the assay with MDA-MB-435; 1.08 µM in the assay on MCF7 breast; 1.75 µM in the assay on NCI/ADR-RES ovarian; more than 10.3 µM with DU-145 prostate. The TGI in the assay with HS 578T breast, in the assay with T-47D breast, in the assay with MDA-MB-435, with MCF7 breast, in the assay on NCI/ADR-RES ovarian and in the assay with DU-145 prostate was more than 25 µM in each case.

For the compound `O=C1/C(=C/c2ccc([N+](=O)[O-])cc2)COc2ccc(O)cc21`, the GI50 in the assay with HS 578T breast was 3.54 µM; in the assay with T-47D breast, 9.73 µM; in the assay with MDA-MB-435 it was 5.21 µM; with MCF7 breast, 1.23 µM; with NCI/ADR-RES ovarian, 16.9 µM; with DU-145 prostate it was 13.5 µM. Moreover, the TGI is more than 100 µM in the assay with HS 578T breast; more than 100 µM in the assay with T-47D breast; 29.7 µM in the assay on MDA-MB-435; 2.8 µM in the assay with MCF7 breast; more than 100 µM with NCI/ADR-RES ovarian; more than 100 µM in the assay on DU-145 prostate.

As to `Cc1ccc(-n2nc(C(C)(C)C)cc2NC(=O)NCc2cc(F)ccc2Oc2ccc3c(cnn3CCO)c2)cc1`, the GI50 is > 10 µM and 10.1 µM in the assay with HS 578T breast; 3.79 µM and 3.76 µM in the assay with T-47D breast; 3.37 µM and 2.75 µM in the assay with MDA-MB-435; 3.55 µM and 3.26 µM in the assay on MCF7 breast; > 10 µM and 7.5 µM in the assay with NCI/ADR-RES ovarian; > 10 µM and 7.2 µM in the assay with DU-145 prostate. Also, the TGI in the assay with HS 578T breast was more than 100 µM; in the assay with T-47D breast, > 10 µM and 32.7 µM; in the assay on MDA-MB-435, more than 62.5 µM; with MCF7 breast, > 10 µM and 51.7 µM; in the assay on NCI/ADR-RES ovarian, more than 100 µM; in the assay on DU-145 prostate, more than 100 µM.

Take `COc1c(O)c(OC)c2oc(-c3ccc(O)cc3)c(OC)c(=O)c2c1O`: the TGI with HS 578T breast was 57 µM; in the assay on T-47D breast it was 55.7 µM; in the assay with MDA-MB-435, more than 100 µM; in the assay with MCF7 breast, more than 100 µM; with NCI/ADR-RES ovarian, more than 100 µM; in the assay on DU-145 prostate, more than 100 µM.

For the compound `C=CC1=C(C)C2=NC1=CC1=NC(=CC3=C(C)C4=C(O)[C@H](C(=O)OC)C(=C5NC(=C2)[C@@H](C)[C@@H]5CCC(=O)O)C4=N3)C(CC)=C1C`, the TGI in the assay with HS 578T breast is more than 100 µM; with T-47D breast, 62.4 µM; in the assay on MDA-MB-435, more than 46.5 µM; in the assay on MCF7 breast it was 11 µM; in the assay on NCI/ADR-RES ovarian it was more than 22.1 µM; with DU-145 prostate, more than 100 µM.

Turning to `COc1ccc(Nc2nccc(N3CCN(c4c5ccc(Cl)cc5nc5ccc(OC)cc45)CC3)n2)cc1`, the GI50 in the assay with HS 578T breast is 5.78 µM; in the assay on T-47D breast it was 2.99 µM; with MDA-MB-435, 8.28 µM; in the assay on MCF7 breast it was 3.67 µM; in the assay on NCI/ADR-RES ovarian, 7.41 µM; in the assay on DU-145 prostate, 28.7 µM. For the same compound, the TGI with HS 578T breast is more than 100 µM; in the assay on T-47D breast it was 44.7 µM; in the assay on MDA-MB-435, more than 100 µM; in the assay on MCF7 breast, more than 100 µM; in the assay with NCI/ADR-RES ovarian it was more than 100 µM; in the assay with DU-145 prostate, more than 100 µM.

As for `COc1ccc(C(=O)c2nc3ccccc3n2CC(=O)c2ccc(Cl)cc2)cc1`, the GI50 was 2.49 µM in the assay with HS 578T breast; 3.65 µM in the assay on T-47D breast; 0.336 µM with MDA-MB-435; 2.1 µM in the assay on MCF7 breast; 1.2 µM with NCI/ADR-RES ovarian; 4.51 µM with DU-145 prostate. Further, the TGI was 12.4 µM in the assay with HS 578T breast; more than 100 µM in the assay with T-47D breast; 1.79 µM in the assay with MDA-MB-435; more than 100 µM with MCF7 breast; more than 21.3 µM in the assay on NCI/ADR-RES ovarian; more than 100 µM in the assay with DU-145 prostate.

Turning to `CSc1ccc(N(C)c2nc(C)nc3c2CCC3)cc1`, the GI50 with HS 578T breast, in the assay with MCF7 breast and in the assay on NCI/ADR-RES ovarian was less than 0.01 µM in each case. Further, the TGI with HS 578T breast is more than 100 µM; in the assay on MCF7 breast, more than 100 µM; in the assay with NCI/ADR-RES ovarian it was 12.6 µM.

For the compound `O=C(Cl)C1=C(c2ccccc2)C1c1ccccc1` (configuration not stated), the TGI in the assay with HS 578T breast, in the assay with T-47D breast, in the assay on MDA-MB-435, with MCF7 breast and in the assay on DU-145 prostate was more than 100 µM throughout.

As to `CN1c2ccccc2SC2C(c3ccccc3)=NOC21` (configuration not stated), the TGI with HS 578T breast was more than 100 µM; in the assay on T-47D breast, 94.3 µM; with MCF7 breast, more than 100 µM; in the assay with NCI/ADR-RES ovarian it was 87.3 µM; in the assay on DU-145 prostate it was more than 100 µM.

For the compound `Clc1ccc2c(c1)N(c1ncnc3ccc(-c4cnc5[nH]ncc5c4)cc13)CC2`, the GI50 with HS 578T breast was 0.162 µM; with T-47D breast, 0.0424 µM; in the assay on MDA-MB-435, 0.804 µM; in the assay with MCF7 breast it was 0.228 µM; in the assay with DU-145 prostate it was 0.351 µM. The TGI is 0.651 µM with HS 578T breast; 0.693 µM with T-47D breast; more than 100 µM in the assay with MDA-MB-435; more than 100 µM with MCF7 breast; more than 100 µM in the assay with DU-145 prostate.

With `Cc1ccc(NC(=O)/C(Cc2nc3ccc([N+](=O)[O-])cc3[nH]c2=O)=N\NC(=O)C[n+]2ccccc2)c(C)c1`, the TGI in the assay on HS 578T breast, in the assay with MDA-MB-435, in the assay with MCF7 breast, with NCI/ADR-RES ovarian and with DU-145 prostate was more than 100 µM throughout.
